Test results as given in ChEMBL document CHEMBL4651402, “Screening of ~5500 FDA-approved drugs and clinical candidates for anti-SARS-CoV-2 activity” (2021).
Where a name gives a salt, the structure may show the parent alone.

Test system: SARS-CoV-2
Assay: microbe, parasite or virus in culture
Conditions: Severe acute respiratory syndrome coronavirus 2, Vero C1008, 48 h

Row | SMILES | IC50 | IC50 (read-out: pIC50 (converted))
1 | O=NN(CCCl)C(=O)NCCCl [CARMUSTINE] | > 20 µM | > 20 µM
2 | Cc1onc(-c2ccccc2)c1-c1ccc(S(N)(=O)=O)cc1 [VALDECOXIB] | > 20 µM | > 20 µM
3 | Cc1cc(C)nc(NS(=O)(=O)c2ccc(N)cc2)n1 [SULFAMETHAZINE] | > 20 µM | > 20 µM
4 | N=C(N)N/N=C/c1c(Cl)cccc1Cl [GUANABENZ] | > 20 µM | > 20 µM
5 | C(#CCN1CCCC1)CN1CCCC1 | > 20 µM | > 20 µM
6 | CC(C)(C)Cn1c(N)nc2ccc(-c3[nH]c(C(C)(C)C)nc3-c3ccc(F)cc3)nc21 [RALIMETINIB] | > 20 µM | > 20 µM
7 | N=C(N)NC(=N)NCCc1ccccc1 [PHENFORMIN] | > 20 µM | > 20 µM
8 | CCN(CC)CC/C(=N\OC(=O)Nc1ccc(OC)cc1)c1ccccc1 | > 20 µM | > 20 µM
9 | O=C1C(O)=C(O)C(=O)C(O)=C1O [TETROQUINONE] | > 20 µM | > 20 µM
10 | CC(=O)NC[C@H]1CN(c2ccc(-c3ccc(CNCc4cnn[nH]4)cc3)c(F)c2)C(=O)O1 [RADEZOLID] | > 20 µM | > 20 µM
11 | COc1cc2c(cc1OC)[C@@H]1C(=O)c3ccc4c(c3O[C@@H]1CO2)C=CC(C)(C)O4 [DEGUELIN] | > 20 µM | > 20 µM
12 | CCCN1C[C@H](CSC)C[C@@H]2c3cccc4[nH]cc(c34)C[C@H]21 [PERGOLIDE MESYLATE] | > 20 µM | > 20 µM
13 | CCn1cc(C(=O)O)c(=O)c2cc(F)c(N3CCNCC3)cc21 [NORFLOXACIN] | > 20 µM | > 20 µM
14 | O=C(O)c1ccc2[nH]nnc2c1 | > 20 µM | > 20 µM
15 | Nc1ccn([C@H]2CC[C@@H](CO)O2)c(=O)n1 [ZALCITABINE] | > 20 µM | > 20 µM
16 | C[C@@H]1CCC[C@H](C)N1 | > 20 µM | > 20 µM
17 | O=C1C(CC[S+]([O-])c2ccccc2)C(=O)N(c2ccccc2)N1c1ccccc1 (centres undefined) [SULFINPYRAZONE] | > 20 µM | > 20 µM
18 | COc1ccc2c3c1O[C@H]1C[C@@H](O)C=C[C@@]31CCN(C)C2 [GALANTAMINE] | > 20 µM | > 20 µM
19 | CC[C@@H]1C2C[C@H](O)CC[C@]2(C)[C@H]2CC[C@]3(C)[C@@H]([C@H](C)CCC(=O)O)CC[C@H]3[C@@H]2[C@@H]1O (some centres undefined) | > 20 µM | > 20 µM
20 | CC(C)NCC1CCc2cc(CO)c([N+](=O)[O-])cc2N1 (centres undefined) [OXAMNIQUINE] | > 20 µM | > 20 µM
21 | O=C(O)CCCN1CCC[C@H]1COc1ccc(Oc2ccc(Cl)cc2)cc1 | > 20 µM | > 20 µM
22 | CC(=O)SCC(Cc1ccccc1)C(=O)NCC(=O)OCc1ccccc1 (centres undefined) [RACECADOTRIL] | > 20 µM | > 20 µM
23 | C=C(NC(=O)C(=C)NC(=O)c1csc(C2=N[C@H]3c4csc(n4)[C@H]4NC(=O)c5csc(n5)[C@H]([C@@](C)(O)[C@@H](C)O)NC(=O)[C@H]5CSC(=N5)/C(=C\C)NC(=O)[C@H]([C@@H](C)O)NC(=O)c5csc(n5)[C@]3(CC2)NC(=O)[C@H](C)NC(=O)C(=C)NC(=O)[C@H](C)NC(=O)[C@H](C(C)CC)N[C@@H]2C=Cc3c([C@H](C)O)cc(nc3[C@H]2O)C(=O)O[C@@H]4C)n1)C(N)=O (some centres undefined) | > 20 µM | > 20 µM
24 | CC[C@@]1(O)C(=O)OCc2c1cc1n(c2=O)Cc2cc3ccccc3nc2-1 [CAMPTOTHECIN] | > 20 µM | > 20 µM
25 | C[C@@H]1CC[C@@]2(OC1)O[C@H]1C[C@H]3[C@@H]4CC=C5C[C@@H](O)CC[C@]5(C)[C@H]4CC[C@]3(C)[C@H]1[C@@H]2C [DISOGENIN] | > 20 µM | > 20 µM
26 | N#C[C@@H]1CCCN1C(=O)CNC12CC3CC(CC(O)(C3)C1)C2 [VILDAGLIPTIN] | > 20 µM | > 20 µM

Row | SMILES | IC50 | IC50 (read-out: pIC50 (converted))
27 | CCCCN/C(=N\CC)NC(=N)N [ETOFORMIN] | > 20 µM | > 20 µM
28 | O=C(NCCN1CCN(c2ncccn2)CC1)C12CC3CC(CC(C3)C1)C2 [ADATANSERIN] | > 20 µM | > 20 µM
29 | CCN[C@H]1C[C@H](C)S(=O)(=O)c2sc(S(N)(=O)=O)cc21 [DORZOLAMIDE] | > 20 µM | > 20 µM
30 | CC(=O)OCC(=O)[C@@]1(O)CCC2C3C[C@H](C)C4=CC(=O)C=CC4(C)C3C(O)CC21C (some centres undefined) | > 20 µM | > 20 µM
31 | CN(C)CCN1C(=O)CC(c2ccccc2)Sc2ccccc21 (centres undefined) [THIAZESIM] | > 20 µM | > 20 µM
32 | N[C@@H]1CC[C@@H](c2ccc(Cl)c(Cl)c2)c2ccccc21 [DASOTRALINE] | > 20 µM | > 20 µM
33 | O=C1CCc2cc(OCCCCc3nnnn3C3CCCCC3)ccc2N1 [CILOSTAZOL] | > 20 µM | > 20 µM
34 | CN1C(=O)CN=C(c2ccccc2)c2cc(Cl)ccc21 [DIAZEPAM] | > 20 µM | > 20 µM
35 | C[C@@H](Oc1cc(-c2cnn(C3CCNCC3)c2)cnc1N)c1c(Cl)ccc(F)c1Cl [CRIZOTINIB] | > 20 µM | > 20 µM
36 | CCN1C[C@@]2(COC)C3[C@@H](OC)[C@H]4[C@H]1C3([C@@H]1C[C@@]3(O)[C@H](OC(=O)c5ccccc5)[C@@H]1[C@]4(OC(C)=O)[C@@H](O)[C@@H]3OC)[C@H](OC)C[C@H]2O | > 20 µM | > 20 µM
37 | COC(=O)Nc1nc2cc([S+]([O-])c3ccccc3)ccc2[nH]1 (centres undefined) [OXFENDAZOLE] | > 20 µM | > 20 µM
38 | COC(=O)CC(O)(CCC(C)(C)O)C(=O)OC1C(OC)=CC23CCCN2CCc2cc4c(cc2C13)OCO4 (centres undefined) | > 20 µM | > 20 µM
39 | COP(=O)(OC)OC(c1ccc(Cl)cc1)P(=O)(OC)OC (centres undefined) [MIFOBATE] | > 20 µM | > 20 µM
40 | COc1ccc(C(=O)NCc2cccnc2)cc1C(=O)NCc1cccnc1 [PICOTAMIDE] | > 20 µM | > 20 µM
41 | c1ccc(C2(c3ccccc3)OCC(C3CCCCN3)O2)cc1 (centres undefined) [DIOXADROL] | > 20 µM | > 20 µM
42 | O=C(O)Cn1c2c(c3cc(F)ccc31)CN(C(=O)c1cccc3ccccc13)CC2 [SETIPIPRANT] | > 20 µM | > 20 µM
43 | CC1(C)C(=O)Nc2ccc(C3=NNC(=O)CC3)cc21 [INDOLIDAN] | > 20 µM | > 20 µM
44 | C[C@]12CCC(=O)C=C1C=C[C@@H]1[C@@H]2CC[C@@]2(C)[C@H]1CC[C@@]21CCC(=O)O1 [CANRENONE] | > 20 µM | > 20 µM
45 | O=C1O[C@@H]([C@@H](O)CO)C(O)=C1O | > 20 µM | > 20 µM
46 | CC1(CN2CCC(n3c(=O)[nH]c4ccccc43)CC2)OCc2ccccc2-n2cccc21 (centres undefined) [ZALDARIDE] | > 20 µM | > 20 µM
47 | CN1C(C(=O)Nc2ccccn2)=C(O)c2sccc2S1(=O)=O [TENOXICAM] | > 20 µM | > 20 µM
48 | O=C1C=CC(=O)c2ccccc21 [NAPHTHOQUINONE] | > 20 µM | > 20 µM
49 | CC(=O)CCCCn1c(=O)c2c(ncn2C)n(C)c1=O [PENTOXIFYLLINE] | > 20 µM | > 20 µM
50 | Cc1cc(O)cc(=O)o1 | > 20 µM | > 20 µM
51 | Nc1nc(N)nc(NC2CC2)n1 [CYROMAZINE] | > 20 µM | > 20 µM
52 | C=CC(C)(C)c1cc(/C=C/C(=O)c2ccc(O)cc2)c(OC)cc1O [LICOAGROCHACONE A] | > 20 µM | > 20 µM
